Results on 1 compound are retold here after patent US11173173B2, “Methods for treating chemoresistant cancer-initiating cells” (UNIVERSITY OF CONNECTICUT, priority 2015, dated 2021).

Structures are written as SMILES.

The target in experiment [1] is T1, EGFP-AKT and mCherry-β-catenin (Mus musculus, UniProt Q02248).
T1 construct: host or cells: 293T cells
T1 sequence (Q02248 1-781): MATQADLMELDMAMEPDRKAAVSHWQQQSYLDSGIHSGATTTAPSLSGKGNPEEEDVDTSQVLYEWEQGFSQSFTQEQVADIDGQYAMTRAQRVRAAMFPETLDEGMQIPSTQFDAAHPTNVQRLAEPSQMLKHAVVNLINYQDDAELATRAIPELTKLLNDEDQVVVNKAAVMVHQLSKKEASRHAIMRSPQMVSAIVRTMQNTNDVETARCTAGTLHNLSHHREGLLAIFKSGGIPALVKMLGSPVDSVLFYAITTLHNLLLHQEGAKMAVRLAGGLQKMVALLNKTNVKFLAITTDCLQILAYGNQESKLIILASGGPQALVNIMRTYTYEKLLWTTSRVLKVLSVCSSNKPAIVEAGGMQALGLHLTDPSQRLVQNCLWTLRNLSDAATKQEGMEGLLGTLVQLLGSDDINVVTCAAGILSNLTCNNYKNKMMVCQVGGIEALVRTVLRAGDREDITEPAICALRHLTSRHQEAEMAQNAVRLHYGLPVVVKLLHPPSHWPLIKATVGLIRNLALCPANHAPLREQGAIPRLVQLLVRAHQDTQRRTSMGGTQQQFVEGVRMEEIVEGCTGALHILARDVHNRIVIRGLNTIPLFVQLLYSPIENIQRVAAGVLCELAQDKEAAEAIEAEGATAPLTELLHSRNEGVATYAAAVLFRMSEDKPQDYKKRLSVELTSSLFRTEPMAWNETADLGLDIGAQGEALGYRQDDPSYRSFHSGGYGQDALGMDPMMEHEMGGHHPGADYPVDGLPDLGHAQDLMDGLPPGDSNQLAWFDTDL
As to the kind of experiment: FRET assay (acceptor photobleaching) of Akt/β-catenin interaction in 293T cells. Format: cell-based. The conditions noted are these: 25, 50, 100, 200 nM; vehicle 2.24%. As to the method:
FRET measurement was performed by using the acceptor photobleaching method. […] A Perkin-Elmer Ultraview spinning disc system with a CSU-X1 Yokogawa disc was used for imaging. A 40X 1.2 NA Plan-apochromatic objective was used, and emission was collected onto a C9100 Hamamatsu Photonics EM-CCD. EGFP was excited with a 488 nm laser, and emission was collected through a 500-555 nm band pass filter. mCherry was illuminated, and photobleached, with a 561 nm laser. Emission of mCherry was collected with a 580-650 nm band pass filter. 6 images of EGFP were acquired before and 8 images after bleaching of the mCherry with intense 561 nm light. After subtraction of camera background, the average intensity of EGFP in a region of interest spanning the bleached cell was determined in the 4 images before acceptor bleach (I1), or the 4 images after acceptor bleach (I2). FRET efficiency is reported as 1−(I1/I2). Calculations were based on >500 cell images.
To test whether DXR could block interaction between Akt and β-catenin, Fluorescence Resonance Energy Transfer (FRET) analysis using EGFP-AKT and mCherry-β-catenin transfected cells was performed.

Experiment [2] relates to blast cells, LSCs and HSPCs sorted from treated leukemic mice. Put plainly: Limiting-dilution transplants into NSG recipients, CRU frequency (ELDA). Format: in vivo, mouse. The note with it: for Engrafted: HSPCs. As to the method: (§1) Leukemic mice were treated with vehicle, chemotherapy, [Low]DXR or chemotherapy+[Low]DXR as described in FIG. 3a. a-c, At 10 days post-treatment, BM was analyzed by flow cytometry to determine frequency of blast cells (a), LSCs (b) and HSPCs (c). Shown are representative plots. d, Average frequency±SD of each population from a-c (n≥6 per group). e, Limiting-dilution assays to determine CRU frequency were performed on blast cells and LSCs sorted from chemotherapy treated leukemic mice and on HSPCs sorted from [Low]DXR treated mice. Engraftment 1% blast cells) was determined in NSG recipients at 10-12 weeks post-transplant.
Limiting-dilution and tumorigenic assays were performed by establishing leukemic mice as described above and treating as indicated at 8 weeks post-induction. For limiting-dilution transplants, mice were treated with chemotherapy or [Low]DXR and, at 10 days post-treatment (based on first treatment), CD45^Hi CD^3+ c-Kit^− blast cells or Lin^− CD^3+ c-Kit^Mid LSCs were sorted from chemotherapy treated mice and Lin^− Sca-1^+ c-Kit^+ HSPCs were sorted from [Low]DXR treated mice. The indicated numbers of these populations were transplanted into 3.25 Gy irradiated NOD. Cg-Prkdc^scid II2rg^tm1WjI/SzJ (NSG) recipient mice. Recipient bone marrow was analyzed by flow cytometry at 10-12 weeks post-transplant and those with ≥1% CD45^Hi blast cells in bone marrow were considered engrafted. CRU frequency was determined using ELDA analysis.

In experiment [3] the test system is T-ALL blast cells, LSCs and HSPCs of leukemic Pten:β-cat^Act mice. Put plainly: Flow cytometry of BM of treated leukemic mice (blast cells, LSCs, HSPCs). It is filed as in vivo, mouse. The conditions noted are these: 10 days post-treatment. As to the method: as §1
Whole bone marrow was isolated from uninduced HSC-SCL-Cre^+ Pten^fx/fx βcat^fx(Exon3)/+ (Pten:β-cat^Act) mice and combined with an equal portion of Cre negative bone marrow from a littermate and transplanted into irradiated (10 Gy) B6.SJL-Ptprc^a Pepc^b/BoyJ (Ptprc) recipients.
Chemotherapy consisted of Nelarabine (Selleck) and Dexamethasone (BioVision) administered daily for 5 days consecutively. 43.4 mg/ml Nelarabine was administered intravenously via the tail vain according to the formula: Body Weight (g)×5=volume to inject (μl), which yielded 217 mg/kg. 2.5 mg/ml Dexamethasone was injected intraperitoneally according to the formula: Body Weight (g)×4=volume to inject (μl), yielding 10 mg/kg. […] [Low]NanoDXR (also referred to as [Low]NanoDoxo throughout) treatment used doxorubicin nanoparticles as described in International Patent Publication WO 2015/054269 (incorporated by reference in its entirety) administered as a single IV injection once per week on day 1 relative to above treatments using 0.8 mg/kg. Maintenance [Low]NanoDXR consisted of once per week injections of 0.4 mg/kg. Groups combining Nelarabine with Doxorubicin used a single injection containing both drugs. All drugs were solubilized in 45% (2-Hydroxypropyl)-β-cyclodextrin (HBC).
Cells were collected from bone marrow (femur and tibia), spleen, peripheral blood, and thymus. For cell surface phenotyping, a lineage cocktail (Lin) was used including CD3 (for HSPC but not LSC analysis), CD4, CD8, Mac-1, Gr1, B220, IgM, and Ter119 (eBioscience, San Diego, Calif.). Monoclonal antibodies against CD3 (separate fluorophore for LSC analysis), Sca-1, c-Kit, CD45.1, and CD45.2 were also used where indicated. Cell sorting and analysis were performed using an inFlux (BD), MoFlo (Dako, Ft. Collins, Colo.) and/or CyAn ADP (Dako, Ft. Collins, Colo.). Data analysis was performed using FlowJo software (Ashland, Oreg.).

`COc1cccc2c1C(=O)c1c(O)c3c(c(O)c1C2=O)C[C@@](O)(C(=O)CO)C[C@@H]3O[C@H]1C[C@H](N)[C@H](O)[C@H](C)O1` [DXR, doxorubicin]: in experiment [1], the “FRET efficiency between EGFP-AKT and mCherry-β-catenin” value is listed as “decreased with increasing concentrations of DXR”. Besides, the “engraftment behaviour of HSPCs sorted from treated mice” value in experiment [2] (10-12 weeks post-transplant) is given as “only engrafted at low levels without developing into leukemia”. Further, in experiment [2] (dose 50, 5 tested), the Engrafted was determined as 0. In experiment [2] (dose 150, 6 tested), this compound showed an Engrafted of 1. In experiment [2] (dose 450, 5 tested), the Engrafted is reported as 1. Further, in experiment [3] (5 daily injections 0.15 μg/g), the “LSC reduction, free DXR 5 doses of 0.15 μg/g” value is recorded as “ineffective”. In experiment [3] ([Low]DXR 0.5 mg/kg daily x5), the “HSPCs in BM vs vehicle” value is “allowed significant recovery of HSPCs”, the “LSCs in BM vs vehicle” value is recorded as “significantly reduced LSCs compared to vehicle” and the “blast cells in BM vs vehicle” value is on record as “did not significantly reduce blast cells”. In experiment [3] ([Low]DXR with Dexa.), the “blast cells in BM, [Low]DXR in combination with dexamethasone” value is “does not act as a traditional chemotherapeutic”. The “blast cells in BM, clinical equivalent (normal) dose DXR” value in experiment [3] (normal dose DXR (8x higher than [Low]) with Dexa.) is “acted similar to chemotherapy in their reduction”.
